Laboratory results reported in ChEMBL document CHEMBL3046956, “Photosynthetic Electron Transport Inhibitory Activity of 2-Aralkylamino-4-methyl-6-trifluoromethyl-1, 3, 5-triazine Derivatives” (J Pestic Sci, 1999).

Assay: Inhibition of photosynthetic electron transport in Spinacia oleracea (spinach) thylakoids using oxygen electrode by Boger method

Row | SMILES | pI50
1 | Cc1nc(NCc2ccc(Cl)cc2)nc(C(F)(F)F)n1 | 6.98
2 | Cc1nc(NCc2ccccc2Cl)nc(C(F)(F)F)n1 | 5.95

Assay: Potency index, ratio of pI50 for simazine to pI50 for test compound against photosynthetic electron transport in Spinacia oleracea (spinach) thylakoids using oxygen electrode by Boger method

Row | SMILES | Ratio
3 | Cc1nc(NCc2ccc(F)cc2)nc(C(F)(F)F)n1 | 10
4 | Cc1nc(NCc2ccc(Cl)cc2)nc(C(F)(F)F)n1 | 10
5 | Cc1nc(NCc2ccc(C(F)(F)F)cc2)nc(C(F)(F)F)n1 | 10
6 | Cc1nc(NCc2ccc(Br)cc2)nc(C(F)(F)F)n1 | 10
7 | Cc1nc(NCc2ccc([N+](=O)[O-])cc2)nc(C(F)(F)F)n1 | 10
